What is called mortality is the percentage killed. A word on the Ki: it is the dissociation constant of the complex between target and ligand, obtained from inhibition or displacement. Read a high Ki as a looser hold on the target. The inhibition is the percentage by which the read-out fell short of the control. Low readings indicate a response near the control, high ones a response far below the control.

Structures are written as SMILES.

In assay [1] the test system is Aphis gossypii. Nature of the assay: Insecticidal activity against adult Aphis gossypii (cotton aphid) in cucumber cotyledons assessed as mortality at 500 ppm treated for 5 secs before adult infestation measured after 72 hr. The format is functional. Particulars: in Cucumis sativus.
A short description of assay [2]: Displacement of [3H]IMI from nicotinic acetylcholine receptor in Drosophila melanogaster brain.
Assay [3] concerns Drosophila melanogaster. Briefly: Displacement of [3H]IMI from nicotinic acetylcholine receptor in Drosophila melanogaster brain at Ki concentration. In general terms: In a radioligand displacement assay an active substance lowers the binding of a labelled ligand.

Turning to `CN/C(=N/CC1CCOC1)N[N+](=O)[O-]` (stereo not given) [DINOTEFURAN], the mortality at 500 ppm in assay [1] amounted to 100%. Besides, the Ki in assay [2] turned out to be 0.076 µM.

Consider `C/C(CCN1CCN/C1=N\[N+](=O)[O-])=N\O`, for which, in assay [1], the mortality at 500 ppm is 10%. The same compound returned a Ki in assay [2] of 40.5 µM.

As to `O=[N+]([O-])/N=C1\NCCN1C[C@@H]1C[C@@H]2O[C@@H]2C1`, the mortality at 500 ppm in assay [1] stood at 0%. The same compound displayed a Ki in assay [2] of 8.1 µM.

With `O=C(CCN1CCN/C1=N\[N+](=O)[O-])C(F)(F)F`, in assay [1], the mortality at 500 ppm came out at 0%. The compound further registered an inhibition in assay [3] of 43%. Further, in assay [2], the Ki is ≥ 100 µM.

On to `O=[N+]([O-])/N=C1\NCCN1C[C@H]1C[C@@H]2O[C@@H]2C1`, for which the mortality at 500 ppm in assay [1] was determined as 18%. The same compound gave a Ki in assay [2] of 14.8 µM.

Take `O=[N+]([O-])/N=C1\NCCN1CCF`: in assay [1], the mortality at 500 ppm is 47%. In assay [3], this compound gave an inhibition of 44%. Also, the Ki in assay [2] is ≥ 100 µM.

For the compound `CN/C(=N\[N+](=O)[O-])NCc1cnc(Cl)s1` [CLOTHIANIDINE], the mortality at 500 ppm in assay [1] is 100%. The same compound showed a Ki in assay [2] of 0.004 µM.

As for `O=[N+]([O-])/N=C1\NCCN1Cc1ccc(Cl)nc1` [IMIDACLOPRID], the mortality at 500 ppm in assay [1] stood at 100%. The compound also showed a Ki in assay [2] of 0.003 µM.

In assay [2], `O=[N+]([O-])/N=C1\N(CCCF)CCN1Cc1ccc(Cl)nc1` displayed a Ki of 0.74 µM.

For the compound `O=[N+]([O-])/N=C1\NCCN1CCCF`, the mortality at 500 ppm in assay [1] was found to be 55%. In addition, the inhibitory constant (Ki) in assay [2] was 1.7 µM.

Regarding `O=[N+]([O-])/N=C1\NCCN1CCCCl`, the mortality at 500 ppm in assay [1] came out at 55%. This compound displayed a Ki in assay [2] of 3.6 µM.

`CCCN1CCN(Cc2ccc(Cl)nc2)/C1=N/[N+](=O)[O-]` came in with a Ki in assay [2] of 0.89 µM.

In the case of `CC(=O)CCN1CCN/C1=N\[N+](=O)[O-]`, in assay [1], the mortality at 500 ppm was 8%. The Ki in assay [2] was 1.2 µM.

In assay [2], `O=[N+]([O-])/N=C1\N(CCC(O)C(F)(F)F)CCN1Cc1ccc(Cl)nc1` (stereo not given) showed a Ki of 5 µM.

With `O=[N+]([O-])/N=C1\NCCN1CC1CCOC1` (stereo not given), the mortality at 500 ppm in assay [1] turned out to be 100%. The inhibition constant (Ki) in assay [2] stood at 0.11 µM.

Take `CO/N=C(\C)CCN1CCN/C1=N\[N+](=O)[O-]`: the mortality at 500 ppm in assay [1] was 2%. The same compound gave a Ki in assay [2] of 61.2 µM.

For `CCCN1CCN/C1=N\[N+](=O)[O-]`, the mortality at 500 ppm in assay [1] worked out at 31%. Moreover, in assay [2], the affinity, expressed as Ki, was 12.8 µM.

Consider `CC(=O)O/C(=C\CN1CCN/C1=N\[N+](=O)[O-])C(F)(F)F`, for which the Ki in assay [2] turned out to be 16.3 µM.

The compound `CC(=O)CCN1CCN(Cc2ccc(Cl)nc2)/C1=N/[N+](=O)[O-]` showed an inhibition constant (Ki) in assay [2] of 6.1 µM.

As for `O=[N+]([O-])/N=C1\NCCN1CC1CC=CC1`, the mortality at 500 ppm in assay [1] worked out at 20%. Also, the inhibitory constant (Ki) in assay [2] was found to be 20.1 µM.

On to `O=[N+]([O-])/N=C1\NCCN1CCC(O)C(F)(F)F` (stereo not given), for which the affinity in assay [2], expressed as Ki, was 18.1 µM.

On to `O=[N+]([O-])/N=C1\NCCN1CCCCF`, for which the mortality at 500 ppm in assay [1] came to 27%. In assay [2], the Ki came out at 3.5 µM.

(Values after ChEMBL document CHEMBL3046299, “Neonicotinoid substituents forming a water bridge at the nicotinic acetylcholine receptor” (J Agric Food Chem, 2009).)
